Reference: patent publication US20240165114A1, “TREATMENT OF DIABETIC NEPHROPATHY WITH AN sGC STIMULATOR” (Cyclerion Therapeutics, Inc., priority 2019, published 2024)

Experiments:
[1] = system: adult patients with type 2 diabetes mellitus with albuminuria; assay: Phase 2 study: change from baseline in urine albumin to creatinine ratio (UACR); assay type: in vivo, human; details: for Between PRL and PBO Group Geometric Mean % Change UACR from Baseline: placebo adjusted; for UACR: Mean CFB at Weeks 8 & 12, Placebo Adjusted / UACR: Mean CFB at Weeks 8 & 12, Within Group: text b231-232 says Week 12
Excerpt: A Multicenter, Randomized, Double-blind, Placebo-controlled, Phase2 Study to Evaluate the Safety and Efficacy of IW-1973 in Patients with Type 2 Diabetes with Albuminuria Treated with Renin-Angiotensin System Inhibitors
The primary objectives of this clinical study (Clinical Trials.gov Identifier NCT03217591) were to assess the safety and tolerability and to evaluate the effect of oral IW-1973 on renal function when administered daily for approximately 12 weeks to adult patients with type 2 diabetes mellitus with albuminuria who were on a stable regimen of renin-angiotensin system inhibitors ([…] or ARBs).
The primary efficacy endpoint of this trial was the change from baseline in Urine Albumin to Creatinine Ratio (UACR) at Weeks 8 and 12. UACR was determined as the concentration of urine albumin [mg/dL] divided by the concentration of urine creatinine [g/dL]) from urinalysis. First morning void urine samples were collected. To reduce variability, the measurement of UACR was the average of 2-first morning void tests at each timepoint.
(§1) This multicenter, randomized, double-blind, placebo-controlled, parallel-group study evaluated 2 dose levels of IW-1973 compared with placebo. The study population consisted of adult patients with type 2 diabetes mellitus, albuminuria, and impaired renal function. Patients had to have been taking antihyperglycemic medications for at least 12 weeks with their regimen being stable (ie, drug and dose) for at least 28 days before the Randomization Visit. Additionally, patients had to have been on a stable regimen of angiotensin-converting enzyme inhibitor (ACEi) or an angiotensin receptor blocker (ARB), for at least 28 days before the Randomization Visit. For more details, see Inclusion Criteria below. A total of 156 patients (approximately 50 patients per arm) were stratified by baseline estimated glomerular filtration rate (eGFR) into three groups: eGFR 30 to 45, >45 to 60, and >60 to 75 mL/min/1.73 m^2) and randomized approximately 1:1:1 to total daily 20 mg IW-1973, 40 mg IW-1973, or placebo.
Treatment Period: The Treatment Period began on Day 1 at Randomization (there was no Day 0) and ended after the End of Treatment Visit on Day 87 (±3). Patients were stratified in one of three groups by baseline eGFR (ie, eGFR 30 to 45, >45 to 60, and >60 to 75 mL/min/1.73 m2) and randomized in an approximate1:1:1 ratio to receive 20 mg IW-1973, 40 mg IW-1973, or placebo for approximately 12 weeks.
Dosing on Days 1 to 7 (±1) was BID (twice daily), morning and evening; dosing on Day 8 (±1) and onward was QD (once daily), 2 tablets in the morning. At the Randomization Visit on Day 1, patients received their morning dose of study drug in the clinic and underwent safety, efficacy, and pharmacokinetic (PK) assessments, including blood and urine collections at prespecified times. Patients stayed in the clinic at least 6 hours postdose and were able to leave the clinic at the Investigator's discretion following all study procedures. At the Week 1 Visit on Day 8 (±1), patients returned to the clinic and received their first QD dose of study drug in the clinic. Patients underwent safety, efficacy, and PK assessments, including blood and urine collections at prespecified times. Patients stayed in the clinic at least 6 hours postdose and were able to leave the clinic at the Investigator's discretion following all study procedures. At the Week 4 (Day 29±3), Week 8 (Day 57±3), and End of Treatment (Day 87±3) Visits, patients returned to the clinic for study drug administration; safety, efficacy, and PK assessments; and study drug supply, if applicable.
One week at 10 mg BID followed by 20 mg QD for the remainder of the trial, i.e., a 20 mg total daily dosage; or
One week at 20 mg BID, followed by 40 mg QD for the remainder of the trial, i.e., a 40 mg total daily dosage.

[2] = system: adult patients with type 2 diabetes mellitus with albuminuria; assay: Phase 2 study: fasting plasma glucose; assay type: in vivo, human; details: ITT
Excerpt: (§2) Other secondary objectives of this clinical study included the evaluation of the pharmacokinetic (PK) concentrations of oral IW-1973 and the exploration of the effect of oral IW-1973 on hemodynamics and metabolic effects when administered daily for approximately 12 weeks to adult patients with type 2 diabetes mellitus with albuminuria (i.e., DN patients) who were on a stable regimen of renin-angiotensin system inhibitors (RAAS inhibitors, i.e., ACEi's and ARBs).
(§3) Clinical laboratory assessments obtained during the performance of this clinical trial included: complete blood count, serum chemistry panel, urinalysis, coagulation panel, estimated glomerular filtration rate (eGFR; determined by the Chronic Kidney Disease Epidemiology Collaboration [CKD-EPI] creatinine equation), hemoglobin A1c (HbA1C), Homeostatic Model Assessment to estimate insulin resistance (HOMA-IR), platelet function assessment (using VerifyNow®, at a subset of sites), urine pregnancy, and screens for hepatitis, human immunodeficiency virus, and drugs of abuse.
as §1

[3] = system: adult patients with type 2 diabetes mellitus with albuminuria; assay: Phase 2 study: hemoglobin A1c; assay type: in vivo, human; details: for Hemoglobin A1c: Between PRL and PBO Group LS Mean Change from Baseline at week 12 / Hemoglobin A1c: Within Group LS Mean Change from Baseline at Week 12: ITT
Excerpt: as §2, §3, §1

[4] = patient concomitantly taking a strong CYP3A inhibitor; cited from earlier work
[5] = ITT, Week 12, PRL 20 mg total daily
[6] = ITT, Week 12, PRL 40 mg total daily
[7] = ITT, Weeks 8 & 12, PRL 20 mg total daily

OC(CNc1nc(-c2cc(-c3ccon3)n(Cc3ccccc3F)n2)ncc1F)(C(F)(F)F)C(F)(F)F [Compound I, praliciguat]
Within Group Geometric Mean % Change UACR from Baseline [1, 5]: −35.2% | Between PRL and PBO Group Geometric Mean % Change UACR from Baseline [1, 5]: −23.9% | Within Group Geometric Mean % Change UACR from Baseline [1, 6]: −26.4% | Between PRL and PBO Group Geometric Mean % Change UACR from Baseline [1, 6]: −13.6% | Within Group Geometric Mean % Change UACR from Baseline ([1]; ITT, Week 12, PRL Combined): −30.9% | Between PRL and PBO Group Geometric Mean % Change UACR from Baseline ([1]; ITT, Week 12, PRL Combined): −18.9% | Within Group Geometric Mean % Change UACR from Baseline [1, 7]: −28.4% | Between PRL and PBO Group Geometric Mean % Change UACR from Baseline [1, 7]: −16.0% | Within Group Geometric Mean % Change UACR from Baseline ([1]; ITT, Weeks 8 & 12, PRL 40 mg total daily): −27.3% | Within Group Geometric Mean % Change UACR from Baseline ([1]; ITT, Weeks 8 & 12, PRL Combined (20 and 40 mg)): −27.8% | placebo-adjusted reduction (mean percent decrease) from baseline in UACR ([1]; ITT, combined praliciguat groups, Weeks 8 and 12): 15% | reduction from baseline in UACR ([1]; ITT, combined praliciguat groups, over 12 weeks (weeks 8 and 12)): 28% | UACR Mean % CFB at Weeks 8 & 12, Placebo Adjusted ([1]; mITT Population, PRL 20 mg): −14.8% | UACR Mean % CFB at Weeks 8 & 12, Within Group ([1]; mITT Population, PRL 20 mg): −18.4% | UACR: Mean CFB at Weeks 8 & 12, Placebo Adjusted ([1]; mITT Population, PRL 20 mg): −21.5% | UACR: Mean CFB at Weeks 8 & 12, Within Group ([1]; mITT Population, PRL 20 mg): −24.7% | UACR Mean % CFB at Weeks 8 & 12, Placebo Adjusted ([1]; mITT Population, PRL 40 mg): −25.1% | UACR Mean % CFB at Weeks 8 & 12, Within Group ([1]; mITT Population, PRL 40 mg): −28.3% | UACR: Mean CFB at Weeks 8 & 12, Placebo Adjusted ([1]; mITT Population, PRL 40 mg): −24.2% | UACR: Mean CFB at Weeks 8 & 12, Within Group ([1]; mITT Population, PRL 40 mg): −27.4% | UACR Mean % CFB at Weeks 8 & 12, Placebo Adjusted ([1]; mITT Population, PRL Combined): −20.1% | UACR Mean % CFB at Weeks 8 & 12, Within Group ([1]; mITT Population, PRL Combined): −23.5% | UACR: Mean CFB at Weeks 8 & 12, Placebo Adjusted ([1]; mITT Population, PRL Combined): −22.9% | UACR: Mean CFB at Weeks 8 & 12, Within Group ([1]; mITT Population, PRL Combined): −26.1% | placebo-adjusted mean percent decrease in UACR ([1]; mITT Population, combined praliciguat treatment groups, Week 12): 23% | placebo-adjusted mean percent decrease from baseline in UACR ([1]; mITT Population, combined praliciguat treatment groups, Weeks 8 and 12): 20% | placebo-corrected mean reduction from baseline in UACR ([1]; mITT, participants with eGFR 30-45 mL/min/1.73 m^2 at baseline, 12-week treatment): 30-40% | Fasting Plasma Glucose: Between PRL and PBO Group LS Mean Change from Baseline at week 12 ([2]; PRL 20 mg): 2.3 mg/dL | Fasting Plasma Glucose: Within Group LS Mean Change from Baseline at Week 12 ([2]; PRL 20 mg): 6.09 mg/dL | Fasting Plasma Glucose: Between PRL and PBO Group LS Mean Change from Baseline at week 12 ([2]; PRL 40 mg): -18.2 mg/dL | Fasting Plasma Glucose: Within Group LS Mean Change from Baseline at Week 12 ([2]; PRL 40 mg): -14.4 mg/dL | Fasting Plasma Glucose: Between PRL and PBO Group LS Mean Change from Baseline at week 12 ([2]; PRL Combined): -7.9 mg/dL | Fasting Plasma Glucose: Within Group LS Mean Change from Baseline at Week 12 ([2]; PRL Combined): -4.1 mg/dL | decrease in mean HbA1c levels compared to placebo ([3]; 12 weeks of treatment): ~0.3% | Hemoglobin A1c: Between PRL and PBO Group LS Mean Change from Baseline at week 12 ([3]; PRL 20 mg): −0.23% | Hemoglobin A1c: Within Group LS Mean Change from Baseline at Week 12 ([3]; PRL 20 mg): −0.26% | Hemoglobin A1c: Between PRL and PBO Group LS Mean Change from Baseline at week 12 ([3]; PRL 40 mg): −0.30% | Hemoglobin A1c: Within Group LS Mean Change from Baseline at Week 12 ([3]; PRL 40 mg): −0.38% | Hemoglobin A1c: Between PRL and PBO Group LS Mean Change from Baseline at week 12 ([3]; PRL Combined): −0.27% | Hemoglobin A1c: Within Group LS Mean Change from Baseline at Week 12 ([3]; PRL Combined): −0.34% | AUC with concomitant strong CYP3A inhibitor versus without [4]: doubled | T1/2 with concomitant strong CYP3A inhibitor versus without [4]: doubled
